According to patent US10689383B2, “Optionally fused heterocyclyl-substituted derivatives of pyrimidine useful for the treatment of inflammatory, metabolic, oncologic and autoimmune diseases” (NUEVOLUTION A/S, priority 2014, dated 2020):

Columns and labels:
[1] = target: T1, yeast Gal4-DNA binding domain fused to the ligand binding domain of human RORγ (Homo sapiens, UniProt P51449); experiment: RORγ Reporter Assay (Gal4); format: cell-based; settings: values given as lower bounds of ranges; for Gal4 activity range @ 1 μM (% inhibition): RORγ Reporter Assay (Gal4) at 1 μM; for Gal4 activity range @ 0.1 μM (% inhibition): RORγ Reporter Assay (Gal4) at 0.1 μM
T1 construct: host or cells: HEK293t
T1 sequence (P51449 269-508 limits assumed): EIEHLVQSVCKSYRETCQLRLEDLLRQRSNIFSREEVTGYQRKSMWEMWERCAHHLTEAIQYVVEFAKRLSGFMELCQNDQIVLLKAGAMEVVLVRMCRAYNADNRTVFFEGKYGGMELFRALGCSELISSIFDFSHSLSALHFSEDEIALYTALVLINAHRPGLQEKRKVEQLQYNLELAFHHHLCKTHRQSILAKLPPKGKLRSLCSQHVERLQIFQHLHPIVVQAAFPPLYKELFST
Description: The activity of the compounds was evaluated using a Fluorescence Polarization (FP) Assay and, in most cases, a Th17 Assay and/or RORγ Reporter assay (also referred to as Gal4 assay). The FP assay is an in vitro assay monitoring binding within the ligand binding pocket. The RORγ and the Th17 assays are both cell-based assays monitoring functional activity of the compound assayed.
Cell-based RORγ functional assays were performed using a commercially available assay product (INDIGO Biosciences, State College, Pa., USA; product # IB04001). The RORγ reporter cells are HEK293t cells transfected with one vector that provides high level constitutive expression of a hybrid protein comprised of the yeast Gal4-DNA binding domain fused to the ligand binding domain of human RORγ, and a second vector comprising the firefly luciferase cDNA functionally linked to the upstream activation sequence (UAS) of yeast Gal4. A suspension of RORγ Reporter Cells was prepared using the protocol and culture medium provided in the kit product, and 100 μl of the Reporter Cell suspension was then dispensed into wells of a white, collagen-treated, 96-well assay plate. Concentrated stocks of test compounds were prepared in DMSO, then further diluted using media provided in the kit to generate ‘2×-concentration’ treatment media. 100 μl of medium for each respective treatment concentration dispensed into triplicate assay wells, thereby combining with the reporter cells. All media formulations contained 10% charcoal stripped Fetal Bovine Serum, but are otherwise proprietary to INDIGO Biosciences. Final treatment concentrations for each test compound were 1,000 nM and 100 nM, each with 0.1% residual DMSO. Separate control treatments were media supplemented with vehicle only (0.1% DMSO) to determine the constitutive level of RORγ activity in the reporter cells, and the reference inverse-agonist ursolic acid (f.c. 6,000 nM to 8.2 nM in 3-fold decrements) to establish a positive control inverse-agonist dose response. Assay plates were placed in a 37° C., 5% CO2, 85% humidity incubator for 24 hour. Treatment media were then discarded, 100 μl of luciferase detection reagent was added to each well, and relative light units (RLUs) were quantified from each assay well using a plate reading luminometer. Values of average RLU+/−standard deviation were computed for all treatment sets, followed by the calculations of fold-reduction: [Average RLUVehicle/Average RLUTest Cmpd]. Percent-reduction of RORγ activity in response to respective test compound treatments was calculated: [100*(1−[Ave RLUTest Cmpd/Ave RLUVehicle)] where the theoretical minimum reduction (0% reduction) derives from Vehicle treatment only, no treatment compound.

[2] = target: T2, human RORγt (Ligand Binding Domain) (Homo sapiens, UniProt P51449); experiment: Fluorescence Polarization (FP) Assay; settings: Fluorescence Polarization (FP) Assay; values given as upper bounds of activity ranges; read-out: FP activity range
T2 construct: purchased Crelux (Planegg, Germany) batch no PC5032-1
T2 sequence (P51449 269-508 limits assumed): T1 sequence (P51449 269-508 limits assumed)
Method in brief: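 Binding to the ligand pocket followed by fluorescence polarization with a TAMRA-tagged RORγt ligand probe of 910 g/mole. Negative control wells received DMSO only.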

Row | Structure (SMILES) | Gal4 activity range @ 1 μM (% inhibition) [1] [% inhibition] | IC50 [2] [nM] | Gal4 activity range @ 0.1 μM (% inhibition) [1] [% inhibition]
1 | NC(=O)[C@@H](CC1CCOCC1)Nc1ncnc(N2CCCC2c2ccc(C(F)(F)F)cc2)c1F (stereo partly drawn) [Example 52, (2R)-2-[[5-fluoro-6-[2-[4-(trifluoromethyl)phenyl]pyrrolidin-1-yl]pyrimidin-4-yl]amino]-3-tetrahydropyran-4-yl-propanamide] | >80 | < 2000 | 
2 | COc1ccc(CNc2ncnc(N3CCCC3c3ccc(C(F)(F)F)cc3)c2F)cc1OC (stereo not drawn) [Example 53, N-[(3,4-dimethoxyphenyl)methyl]-5-fluoro-6-[2-[4-(trifluoromethyl)phenyl]pyrrolidin-1-yl]pyrimidin-4-amine] | >20 | < 1000 | 
3 | COc1cccc(CNc2ncnc(N3CCCC3c3ccc(C(F)(F)F)cc3)c2F)c1OC (stereo not drawn) [Example 54, N-[(2,3-dimethoxyphenyl)methyl]-5-fluoro-6-[2-[4-(trifluoromethyl)phenyl]pyrrolidin-1-yl]pyrimidin-4-amine] | >50 | < 1000 | 
4 | Fc1c(NCc2ccc(N3CCOCC3)cc2)ncnc1N1CCCC1c1ccc(C(F)(F)F)cc1 (stereo not drawn) [Example 56, 5-fluoro-N-[(4-morpholinophenyl)methyl]-6-[2-[4-(trifluoromethyl)phenyl]pyrrolidin-1-yl]pyrimidin-4-amine] | >20 | < 2000 | 
5 | O=C1CN(c2ccc(CNc3ncnc(N4CCCC4c4ccc(C(F)(F)F)cc4)c3F)cc2)CCN1 (stereo not drawn) [Example 60, 4-[4-[[[5-fluoro-6-[2-[4-(trifluoromethyl)phenyl]pyrrolidin-1-yl]pyrimidin-4-yl]amino]methyl]phenyl]piperazin-2-one] | >20 | < 2000 | 
6 | NC(=O)[C@@H](CC1CCNC1=O)Nc1ncnc(N2CCCC2c2ccc(C(F)(F)F)cc2)c1F (stereo partly drawn) [Example 63, (2R)-2-[[5-fluoro-6-[2-[4-(trifluoromethyl)phenyl]pyrrolidin-1-yl]pyrimidin-4-yl]amino]-3-(2-oxopyrrolidin-3-yl)propanamide] | >20 | < 2000 | 
7 | CC(C)(C)C[C@@H](Nc1ncnc(N2CCCC2c2ccc(C(F)(F)F)cc2)c1F)C1CNCCO1 (stereo partly drawn) [Example 64, N-[(1R)-3,3-dimethyl-1-morpholin-2-yl-butyl]-5-fluoro-6-[2-[4-(trifluoromethyl)phenyl]pyrrolidin-1-yl]pyrimidin-4-amine] | >20 | < 2000 | 
8 | COc1cc(C(F)(F)F)ccc1C1CCCN1c1ncnc(N[C@H](CC(C)(C)C)C(N)=O)c1F (stereo partly drawn) [Example 65, (2R)-2-[[5-fluoro-6-[2-[2-methoxy-4-(trifluoromethyl)phenyl]pyrrolidin-1-yl]pyrimidin-4-yl]amino]-4,4-dimethyl-pentanamide] | >20 | < 500 | 
9 | Cc1ccc(CNc2nccc(N3CCCC3c3ccc(C(F)(F)F)cc3)c2F)cn1 (stereo not drawn) [Example 66, 3-fluoro-N-[(6-methyl-3-pyridyl)methyl]-4-[2-[4-(trifluoromethyl)phenyl]pyrrolidin-1-yl]pyridin-2-amine] | >50 | < 2000 | 
10 | CC(C)(C)C[C@@H](Nc1ncnc(N2CCOCC2c2ccc(OC(F)(F)F)cc2)c1F)C(N)=O (stereo partly drawn) [Example 68, (2R)-2-[[5-fluoro-6-[3-[4-(trifluoromethoxy)phenyl]morpholin-4-yl]pyrimidin-4-yl]amino]-4,4-dimethyl-pentanamide] | >80 | < 2000 | 
11 | COc1ccc(Cn2ccc3c(N4CCCC4c4ccc(C(F)(F)F)cc4)ncnc32)cc1OC (stereo not drawn) [Example 69, 7-[(3,4-dimethoxyphenyl)methyl]-4-[2-[4-(trifluoromethyl)phenyl]pyrrolidin-1-yl]pyrrolo[2,3-d]pyrimidine] | >50 | < 1000 | 
12 | CC(C)(C)C[C@@H](Nc1ncnc(N2CCCC2c2ccc(C(F)(F)F)c(F)c2)c1F)C(N)=O (stereo partly drawn) [Example 72, (2R)-2-[[5-fluoro-6-[2-[3-fluoro-4-(trifluoromethyl)phenyl]pyrrolidin-1-yl]pyrimidin-4-yl]amino]-4,4-dimethyl-pentanamide] | >80 | < 1000 | 
13 | COc1ccc(C2CCCN2c2ncnc(NCc3ccc(C)nc3)c2F)cc1 (stereo not drawn) [Example 90, 5-fluoro-6-[2-(4-methoxyphenyl)pyrrolidin-1-yl]-N-[(6-methyl-3-pyridyl)methyl]pyrimidin-4-amine] | >20 | < 1000 | >0

The remaining lines, values ahead:

Row | Gal4 activity range @ 1 μM (% inhibition) [1] [% inhibition] | IC50 [2] [nM] | Gal4 activity range @ 0.1 μM (% inhibition) [1] [% inhibition] | Structure (SMILES)
14 | >20 | < 2000 | >0 | Cc1ccc(COc2ncnc(N3CCCC3c3ccc(C(F)(F)F)c(F)c3)c2F)cn1 (stereo not drawn) [Example 73, 5-fluoro-4-[2-[3-fluoro-4-(trifluoromethyl)phenyl]pyrrolidin-1-yl]-6-[(6-methyl-3-pyridyl)methoxy]pyrimidine]
15 | >80 | < 2000 |  | Cc1ccc(COc2ncnc(N3CCCC3c3ccc(C(F)(F)F)cc3)c2F)cn1 (stereo not drawn) [Example 74, 5-fluoro-4-[(6-methyl-3-pyridyl)methoxy]-6-[2-[4-(trifluoromethyl)phenyl]pyrrolidin-1-yl]pyrimidine]
16 | >50 | < 500 | >0 | CC1CCC(CNc2ncnc(N3CCCC3c3ccc(C(F)(F)F)cc3)c2F)CC1 (stereo not drawn) [Example 93, 5-fluoro-N-[(4-methylcyclohexyl)methyl]-6-[2-[4-(trifluoromethyl)phenyl]pyrrolidin-1-yl]pyrimidin-4-amine]
17 | >80 | < 1000 | >20 | CS(=O)(=O)Cc1ccc(CNc2ncnc(N3CCCC3c3ccc(C(F)(F)F)cc3)c2F)cc1 (stereo not drawn) [Example 95, 5-fluoro-N-[[4-(methylsulfonylmethyl)phenyl]methyl]-6-[2-[4-(trifluoromethyl)phenyl]pyrrolidin-1-yl]pyrimidin-4-amine]
18 | >80 | < 1000 | >20 | Cc1ccc(CNc2ncnc(N3CCCC3c3ccc(OC(F)(F)F)cc3)c2F)cn1 (stereo not drawn) [Example 97, 5-fluoro-N-[(6-methyl-3-pyridyl)methyl]-6-[2-[4-(trifluoromethoxy)phenyl]pyrrolidin-1-yl]pyrimidin-4-amine]
19 | >80 | < 1000 | >20 | CC(C)(O)Cc1ccc(CNc2ncnc(N3CCCC3c3ccc(C(F)(F)F)cc3)c2F)cc1 (stereo not drawn) [Example 98, 1-[4-[[[5-fluoro-6-[2-[4-(trifluoromethyl)phenyl]pyrrolidin-1-yl]pyrimidin-4-yl]amino]methyl]phenyl]-2-methyl-propan-2-ol]
20 | >20 | < 2000 |  | Oc1ccc(CNc2ncnc(N3CCCC3c3ccc(C(F)(F)F)cc3)c2F)cn1 (stereo not drawn) [Example 100, 5-[[[5-fluoro-6-[2-[4-(trifluoromethyl)phenyl]pyrrolidin-1-yl]pyrimidin-4-yl]amino]methyl]pyridin-2-ol]
21 | >20 | < 10000 |  | Cn1cc(CNc2ncnc(N3CCCC3c3ccc(C(F)(F)F)cc3)c2F)cn1 (stereo not drawn) [Example 106, 5-fluoro-N-[(1-methylpyrazo1-4-yl)methyl]-6-[2-[4-(trifluoromethyl)phenyl]pyrrolidin-1-yl]pyrimidin-4-amine]
